Consider one compound from patent US5770573A, “CS-1 peptidomimetics, compositions and methods of using the same” (Cytel Corporation, priority 1995, dated 1998).

Square brackets hold non-standard residues; d marks the D form. Peptide text beside a SMILES is read from it. * marks the point of attachment. PhAc = O=C(Cc1ccccc1)*

For this test, the target named is VLA-4 (Homo sapiens, UniProt P05556+P13612). Nature of the test: In vitro binding inhibition of 51Cr-labeled Jurkat cells to solid phase-bound CS-1 compound (SEQ ID NO:1). In kind it is cell-based. Set-up: inflammatory cells that contain the VLA-4 receptor [Jurkat cells; host or cells: Jurkat (human T lymphoblastic line). The method in brief:
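51Cr-labeled human Jurkat cells were preincubated with compound 30 min at about 22° C, then allowed to bind to wells coated with CS-1 peptide or CS-1-OVA for 30 min at 37° C. After washing, bound cells were lysed with SDS and counted. IC50 is the concentration halving binding, normalized to SEQ ID NO: 3.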

Sequence of VLA-4 (P13612 34-1032): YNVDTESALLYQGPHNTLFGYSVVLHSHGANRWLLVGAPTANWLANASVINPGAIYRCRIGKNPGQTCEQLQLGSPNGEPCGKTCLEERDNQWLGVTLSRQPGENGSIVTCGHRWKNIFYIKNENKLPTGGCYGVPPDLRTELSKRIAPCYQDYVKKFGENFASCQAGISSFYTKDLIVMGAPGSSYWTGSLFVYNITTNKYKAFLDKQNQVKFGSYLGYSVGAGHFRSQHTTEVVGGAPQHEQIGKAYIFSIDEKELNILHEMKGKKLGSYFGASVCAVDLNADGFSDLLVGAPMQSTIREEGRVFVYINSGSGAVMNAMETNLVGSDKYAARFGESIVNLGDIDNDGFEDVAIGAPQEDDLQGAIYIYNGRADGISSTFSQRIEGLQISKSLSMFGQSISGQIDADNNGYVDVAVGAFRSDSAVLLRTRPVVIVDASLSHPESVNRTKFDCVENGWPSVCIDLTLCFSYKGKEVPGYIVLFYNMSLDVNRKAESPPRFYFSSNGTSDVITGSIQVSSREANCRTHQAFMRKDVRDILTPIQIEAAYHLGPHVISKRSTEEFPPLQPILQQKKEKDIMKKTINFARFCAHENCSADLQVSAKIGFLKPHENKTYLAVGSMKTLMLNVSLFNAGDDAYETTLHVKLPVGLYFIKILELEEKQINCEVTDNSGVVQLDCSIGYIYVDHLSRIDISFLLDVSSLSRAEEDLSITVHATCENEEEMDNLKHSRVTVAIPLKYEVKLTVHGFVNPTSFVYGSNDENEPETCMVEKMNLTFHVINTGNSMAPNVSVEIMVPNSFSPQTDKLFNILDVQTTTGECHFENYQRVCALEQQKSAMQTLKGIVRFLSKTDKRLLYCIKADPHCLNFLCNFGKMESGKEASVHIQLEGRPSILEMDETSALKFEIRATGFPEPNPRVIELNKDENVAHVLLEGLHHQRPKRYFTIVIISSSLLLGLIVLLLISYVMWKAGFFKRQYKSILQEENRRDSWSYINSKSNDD
Sequence of VLA-4 (P05556 21-798): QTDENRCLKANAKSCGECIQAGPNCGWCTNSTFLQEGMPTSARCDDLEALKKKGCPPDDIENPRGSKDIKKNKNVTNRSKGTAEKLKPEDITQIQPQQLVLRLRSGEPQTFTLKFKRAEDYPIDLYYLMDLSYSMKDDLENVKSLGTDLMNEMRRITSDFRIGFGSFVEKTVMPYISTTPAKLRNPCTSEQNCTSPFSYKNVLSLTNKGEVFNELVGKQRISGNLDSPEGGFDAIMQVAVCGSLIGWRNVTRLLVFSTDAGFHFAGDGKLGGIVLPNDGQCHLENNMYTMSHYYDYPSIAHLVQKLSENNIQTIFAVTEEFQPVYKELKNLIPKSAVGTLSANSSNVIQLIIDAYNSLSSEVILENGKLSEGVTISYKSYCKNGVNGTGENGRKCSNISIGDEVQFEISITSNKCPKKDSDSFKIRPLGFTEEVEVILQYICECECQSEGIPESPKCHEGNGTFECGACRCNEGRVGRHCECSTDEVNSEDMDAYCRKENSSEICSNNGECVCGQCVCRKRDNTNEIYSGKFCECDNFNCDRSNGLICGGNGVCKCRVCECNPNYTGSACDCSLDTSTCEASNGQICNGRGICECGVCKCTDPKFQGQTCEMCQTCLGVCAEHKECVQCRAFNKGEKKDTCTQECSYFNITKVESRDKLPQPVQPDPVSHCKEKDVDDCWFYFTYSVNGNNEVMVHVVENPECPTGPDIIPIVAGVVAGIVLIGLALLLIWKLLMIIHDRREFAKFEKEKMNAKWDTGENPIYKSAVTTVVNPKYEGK

In the case of `CC(C)C[C@H](NC(=O)[C@H](CC(=O)O)NC(=O)Cc1ccccc1)C(=O)N[C@@H](Cc1ccccc1)C(=O)N1CCC[C@@H]1C(N)=O` [Compound ID No. 1066.02, N-phenylacetyl-Asp-Leu-Phe-D-Pro-NH2, reference compound] (PhAc-DLF[dP]-NH2), the “Relative Potency” value (binding inhibition potency relative to standard compound of SEQ ID NO:3 = 1 (normalized IC50), about one-tenth or less assigned zero) is listed as 0. Moreover, where the note is “compared with standard 10-mer of SEQ ID NO:3”, the “VLA-4 binding inhibition compared in words” value is listed as “no inhibition of VLA-4”.
